From PMC9851725 (International Journal of Biological Macromolecules, 2023)
Like-named read-outs stand apart in the source and are kept apart here.

Assays:
SARS-CoV-2 [1] = conditions: Vero-E6 cells ref 9; cited from earlier work
SARS-CoV-2 [2] = assay type: cell-based
SARS-CoV-2 PLpro [3] = biological target: T1, SARS-CoV-2 PLpro (Severe acute respiratory syndrome coronavirus 2, UniProt P0DTD1); assay type: binding
PLpro = PLpro (Severe acute respiratory syndrome coronavirus 2, UniProt P0DTD1); assay: Differential scanning fluorimetry; conditions: PLpro 2.5 μM; ATA 0.78 μM to 200 μM; 20 °C to 90 °C
SARS-CoV-2 [4] = assay type: in vivo, Syrian hamster; conditions: for reduction in virus RNA levels in throat swabs vs untreated control: daily day 0–4, day 5
SARS-CoV-2 PLpro [5] = biological target: T1, SARS-CoV-2 PLpro; assay type: biochemical
[6] = 15, 30, 45 mg/kg oral; observation period of five days
[7] = PLpro pre-incubated with GRL0617 for 2 h
[8] = binding to PLpro, no pre-incubation

Structure (SMILES): Nc1nc2nc[nH]c2c(=S)[nH]1 [6-TG, 6-thioguanine]
- EC50 (SARS-CoV-2 [1]): ~2000 nM

Structure (SMILES): O=C(O)C1=CC(=C(c2ccc(O)c(C(=O)O)c2)c2ccc(O)c(C(=O)O)c2)C=CC1=O [ATA, aurintricarboxylic acid]
- % reduction (SARS-CoV-2 [2]; 25 μM ATA): 3.1%
- Viral RNA copy no./ml (SARS-CoV-2 [2]; 25 μM ATA): 2404
- % reduction (SARS-CoV-2 [2]; 75 μM ATA): 84.2%
- Viral RNA copy no./ml (SARS-CoV-2 [2]; 75 μM ATA): 393
- % reduction (SARS-CoV-2 [2]; 100 μM ATA): 91.7%
- Viral RNA copy no./ml (SARS-CoV-2 [2]; 100 μM ATA): 207
- % reduction (SARS-CoV-2 [2]; 200 μM ATA): 92.2%
- Viral RNA copy no./ml (SARS-CoV-2 [2]; 200 μM ATA): 193
- % reduction (SARS-CoV-2 [2]; 300 μM ATA): 97.1%
- Viral RNA copy no./ml (SARS-CoV-2 [2]; 300 μM ATA): 71
- % reduction (SARS-CoV-2 [2]; 400 μM ATA): 99.0%
- Viral RNA copy no./ml (SARS-CoV-2 [2]; 400 μM ATA): 25
- N (stoichiometry) (SARS-CoV-2 PLpro [3]; [7]): 1.30
- ΔH (enthalpy change) (SARS-CoV-2 PLpro [3]; [7]): -2403 cal/mol
- ΔS (entropy change) (SARS-CoV-2 PLpro [3]; [7]): 14.6 cal/mol/deg
- N (stoichiometry) (SARS-CoV-2 PLpro [3]; [8]): 1.31
- ΔH (enthalpy change) (SARS-CoV-2 PLpro [3]; [8]): -2469 cal/mol
- ΔS (entropy change) (SARS-CoV-2 PLpro [3]; [8]): 14.3 cal/mol/deg
- enthalpy (ΔH) (SARS-CoV-2 PLpro [3]; one-site binding model, no pre-incubation): -2.47 kcal/mol
- effect on PLpro structure (SYPRO Orange dye fluorescence) (PLpro): stabilizes the protein structure
- reduction of virus RNA levels in lung tissues vs untreated control (SARS-CoV-2 [4]; 15, 30, 45 mg/kg oral, day 5): no significant reduction
- lung pathology vs untreated (SARS-CoV-2 [4]; 15, 30, 45 mg/kg oral, day 5, H&E): no noticeable difference
- reduction in virus RNA levels in throat swabs vs untreated control (SARS-CoV-2 [4]; group A, 15 mg/kg oral): 0.4 log
- reduction in virus RNA levels in throat swabs vs untreated control (SARS-CoV-2 [4]; group B, 30 mg/kg oral): 0.4 log
- reduction in virus RNA levels in throat swabs vs untreated control (SARS-CoV-2 [4]; group C, 45 mg/kg oral): 1 log
- type of inhibition (SARS-CoV-2 PLpro [5]; best fit of kinetic data among four models (AICc)): non-competitive
- inhibition of PLpro enzymatic activity in library screening (SARS-CoV-2 PLpro [5]; compounds up to 300 μM, 200 nM enzyme, 20 μM substrate, 5 mM DTT): significant inhibition
- weight loss, gross complications, or mortality [6]: no significant weight loss

Structure (SMILES): O=C1C=CC(=C(c2ccc(O)cc2)c2ccc(O)cc2)C=C1 [aurin, reference compound]
- inhibition of PLpro (SARS-CoV-2 PLpro [5]): didn't inhibit
